In patent US8048924B2, “Methods and compositions employing 4-aminophenylacetic acid compounds” (Biocon Limited, priority 2001, dated 2011):
Several values for one entry are separate records, joined by “and”; a condition that tells them apart may be missing. Equal values may be shown once.

Assays:
[1] = Single oral dose plasma pharmacokinetics and elimination of APAZA and metabolites in mice; type: in vivo, male CD-1 mice
Description: Initial single dose pharmacokinetic studies with the APAZA™ compound have been conducted in dogs and mice. A study was completed in order to determine the plasma pharmacokinetics and elimination of the APAZA™ compound and its metabolites (5-ASA, 4-APAA, 5-aceASA and 4-aceAPAA) following single oral dose administration to male CD-1 mice. […] When normalized to molar values, the Cmax values for all the APAZA™ metabolites were less than APAZA™; the values ranged from 2.68 to 13.8 μM. However, the normalized APAZA™ AUC∞ value was not greater than all the other metabolites; these values ranged from […]. […] The Tmax values for APAZA™ and its metabolites were 1 hour and 4 hours, respectively.

[2] = system: DNBS colitis; test: DNBS colitis in the rat, equimolar rectal doses of 5-ASA, 4-APAA and mixture; type: in vivo, male Lewis rats; conditions: for average severity score for necrosis, Adventitia / average severity score for necrosis, Mucosa / average severity score for necrosis, Muscularis / average severity score for necrosis, Submucosa: colon histology, scale 1-5, intrarectal twice daily for four days; for reduction in colon:body weight [% BW] / reduction of adhesion scores: rectal b.i.d. 4 days; for reduction in colon:body weight [% BW]: 5-ASA 50 mg/kg, 4-APAA 49.5 mg/kg, mixture 50+49.5 mg/kg; for reduction of adhesion scores: vs vehicle/DNBS
Excerpt: The purpose of this study was to histologically evaluate and compare the effects of three different therapeutic agents administered intrarectally (twice daily for four days) to male Lewis rats following intrarectal administration of dinitrobenzene sulfonic acid (DNBS). DNBS induced colitis in rats according to an established experimental model (see, for example, Bertran et al., “Intracolonic administration of zileuton, a selective 5-lipoxygenase inhibitor, accelerates healing in a rat model of chronic colitis,” Gut. 38(6):899-904 (1996), and Blau et al., “Relation between colonic inflammation severity and total low-molecular-weight antioxidant profiles in experimental colitis,” Dig Dis Sci. 45(6):1180-1187 (2000), the entire disclosures of which are incorporated herein by reference). SHAM and DNBS groups served as negative and positive controls, respectively.
Trimmed specimens of colon from 27 male rats were tested, including microtoming, and hematoxylin and eosin staining. The resulting 27 slides (1 transverse section per slide) were examined microscopically. Except for one rat from the SHAM group and one rat from the DNBS group, all slides had their labels taped over to facilitate blind reading. Lesions were graded on a scale of 1-5 (1=minimal; 2=mild; 3=moderate; 4=moderately-severe; 5=severe).
Because the pattern of necrosis often varied from section to section, the individual intestinal layers were scored separately.
Dinitrobenzene sulfonic acid (DNBS) colitis was induced (no ether anesthesia) in 4 groups 4 of 6 Lewis rats each. One DNBS group was dosed with vehicle (0.7% methyl cellulose) as well as an additional sham group of 6 animals that received a saline enema instead of DNBS. Intrarectal (ir) dosing was performed in conscious animals b.i.d. for 4 days. Drug treatments were as follows: • 5-aminosalicylic acid (5-ASA): 50 mg/kg • 4-aminophenylacetic acid (4-APAA): 49.5 mg/kg (equimolar to 5-ASA) • Mixture: 5-ASA+4-APAA: 50 mg/kg+49.5 mg/kg
Drugs were suspended in the above mentioned vehicle and staff blinded to drug groups. Daily weights and diarrhea scores were recorded. On the 5th day post-irritant rats were sacrificed, laparotomies performed and scored for intestinal adhesions and strictures; colectomized and colon weights recorded, colons opened longitudinally and inflammation/ulcerations scored.
The anti-inflammatory effects of 3 different treatments were compared in a DNBS model of colitis in 30 male Lewis rats weighing between 218 and 260 grams.
Animals were divided into 5 groups of 6 animals in each group: • 0.7% methylcellulose (vehicle)+normal saline • 0.7% methylcellulose (vehicle)+ethanolic solution of 2,4-dinitrobenzenesulfonic acid (DNBS) 30 mg • 5-ASA at 100 mg/kg·day+DNBS 30 mg/rectally • 4-APAA at 99 mg/kg·day+DNBS 30 mg/rectally • 5-ASA+4-APAA mixture (APAZA™) at 199 mg/kg·day+DNBS 30 mg/rectally
Experimental colitis was induced under light anesthesia (ketamine/xylazine) in 4 of 5 groups by instilling DNBS (30 mg) rectally at a volume of 0.5 mL to fasted rats. Each group of animals received rectal twice daily (bid) doses of either vehicle (0.7% methylcellulose) or test compounds (5-ASA, 4-APAA or APAZA™) for 4 days beginning 24 hours after either the normal saline or DNBS irritant was instilled. Body weight and incidence of diarrhea were recorded daily. Each animal in the 4 DNBS groups and in the single parallel saline group was sacrificed 5 days post irritant. Laparotomies and colectomies were performed and animals were scored for the presence and severity of intestinal adhesions, strictures, inflammation, and ulceration. Colon: body weight ratios were determined and tissue was examined histologically.

Row | SMILES | AUC(0-inf) ([1]; male, CD-1, mouse, in vivo, po) [ng·h/mL] | Cmax ([1]; male, CD-1, mouse, in vivo, po) [ng/mL] | Tmax ([1]; male, CD-1, mouse, in vivo, po) [h] | half-life ([1]; male, CD-1, mouse, in vivo, po) [h] | plasma concentration at 24 hours ([1]; mouse, in vivo, po) | average severity score for necrosis, Adventitia [2] | average severity score for necrosis, Mucosa [2] | average severity score for necrosis, Muscularis [2] | average severity score for necrosis, Submucosa [2] | reduction in colon:body weight [% BW] [2] | reduction of adhesion scores [2] [%] | plasma concentration at 24 hours ([1]; single oral dose of APAZA, male CD-1 mice)
1 | O=C(O)Cc1ccc(/N=N/c2ccc(O)c(C(=O)O)c2)cc1 [APAZA™, 5-(4-carboxymethyl-phenylazo)-2-hydroxy-benzoic acid] | 7430 | 5930 | 1 | 3.34 | below the limit of detection |  |  |  |  |  |  | 
2 | Nc1ccc(CC(=O)O)cc1 [4-APAA, (4-aminophenyl)-acetic acid] |  |  |  |  |  | 1.67 | 4.33 | 3.17 | 4.00 | ~31% and ~30% | ~25 | below the limit of detection
3 | Nc1ccc(O)c(C(=O)O)c1 [5-ASA, 5-amino-2-hydroxy-benzoic acid, reference compound] |  |  |  |  |  | 1.67 | 4.50 | 3.5 | 4.17 | ~31% and ~30% | ~17 | 
